Results on 2 molecules are retold here after article doi:10.1101/2022.12.25.521902v1 (biorxiv, 2022).

The subject of this experiment is MsC17OMT (MsOMT1). The experiment in a line: LC-MS/MS methyltransferase assay, Michaelis-Menten fit. The format is biochemical, Mitragyna speciosa. The conditions noted are these: 100 μM SAM, Tris-HCl pH 7.5, 30 °C, 2 min.

A word on the Km: it is the substrate concentration at which the rate is half of its maximum. For `C/C=C1/CN2CCc3c([nH]c4ccccc34)[C@@H]2C[C@@H]1/C(=C/O)C(=O)OC` [compound 3, 19E-geissoschizine], the Km stood at 5.3 µM.
With `C/C=C1\CN2CCc3c([nH]c4ccccc34)[C@@H]2C[C@@H]1/C(=C/O)C(=O)OC` [compound 4, 19Z-geissoschizine] the figure was 12.8 µM.
